Assay results: patent publication US20080248094A1 (NATIONAL RESEARCH COUNCIL OF CANADA, priority 2001, published 2008)
Where “and” joins values, the source holds several entries; their conditions need not be identical. Identical values can stand only once.

How the values were obtained:
OVA = system: OVA; set-up: species or system C57BL/6 mice; conditions: mouse, in vivo
[1] = system: IL-12 secretion from dendritic cells; type: cell-based, C57BL/6 mice
[2] = system: bone marrow dendritic cells; type: cell-based, C57BL/6 mice

## OVA, no adjuvant: 15 μg ovalbumin (OVA) with no adjuvant
OVA
  anti OVA antibody titres: <42

## lipopolysaccharide [LPS]
[1]
  IL-12: 187.9 ng/mL and 182.7 ng/mL
[2]
  MTT (Absorbance): 0.564 Absorbance and 0.562 Absorbance
